Assay results from patent US9328369B2, “Process for production of useful substance, and surfactant for use in the process” (priority 2009, dated 2016).

Columns and labels:
Assay type in all cases: cell-based
Escherichia coli (α) = experiment: Screening of secretion efficiency, alkaline phosphatase expressing strain; conditions: surfactant 1 wt %; 37° C., 1 hour; ELISA, anti-His-tag antibody
Source text: An alkaline phosphatase (phoA) gene of an Escherichia coli strain W3110 was amplified by the PCR method using primers 1 and 2 (Table 4). After being treated with restriction enzymes NdeI and BamHI, a PCR fragment was bound with an NdeI restriction enzyme site and with a BamHI restriction enzyme site of a pET-22b plasmid (product of Novagen). Then, the plasmid was transformed into an AG1 (DE3) Escherichia coli strain formed by transforming an Escherichia coli strain AG1 (product of TOYOBO Co., LTD.) with use of a λDE3 Lysogenization Kit (product of Novagen). In this manner, an alkaline phosphatase expressing strain (a) was formed.
(§1) A pdxA gene of an Escherichia coli strain W3110 was amplified by the PCR method using primers 5 and 6 (Table 4). After being treated with restriction enzymes NdeI and BamHI, a PCR fragment was bound to an NdeI restriction enzyme site and a BamHI restriction enzyme site of a pET-22b plasmid (product of Novagen). Then, the plasmid was transformed into an AG1 (DE3) Escherichia coli strain to form a PdxA expressing strain (γ).
In this manner, culture solutions were prepared.
(2) The strains were collected using a centrifuge (4,000 G, 4° C., 15 minutes). Each of the collected Escherichia coli strains was resuspended in 1 mL of a TB culture solution (product of Difco) and chloramphenicol (30 mg/L) and IPTG (100 μM) were added thereto. Shake culture at 37° C. for 3 hours induced expression of phoA, torA, and pdxA.
(3) Subsequently, harvesting using a centrifuge was carried out again (4,000 G, 4° C., 15 minutes). Each of the collected Escherichia coli strains was resuspended in 2.5 mL of a Tris-NaCl buffer solution (50 mM Tris (pH 7.5), 100 mM NaCl). The resulting solution was divided into 25-μL portions at a time to be mixed with 25 μL of a Tris-NaCl buffer solution.
(4) Then, the solution was allowed to stand at 37° C. for 1 hour. The supernatant solution was collected and diluted in a Tris-NaCl buffer solution to a proper concentration. Here, the quantification of the recombinant protein in the resulting solution was carried out by ELISA assay with use of an anti-His-tag antibody. The sample prior to the centrifugation in the process (3) was treated with ultrasonic waves (200 W, 10 minutes) and the quantification of the recombinant protein therein was similarly carried out by ELISA assay with use of an anti-His-tag antibody. The ratio of lysed bacteria was obtained with use of Escherichia coli (γ), and the secretion efficiencies of the recombinant proteins of Escherichia coli (α) and (β) were calculated by using the following formula. […] Secretion efficiency (%)=100×{(X/Y)−Z}.
In the formula, “X” represents the amount of the recombinant protein in the culture solution after removal of bacterial cells by centrifugation in the case of using Escherichia coli (α) or (β).
“Y” represents the amount of the whole recombinant protein in the culture solution in the case of using Escherichia coli (α) or (β).
“Z” represents the ratio of lysed bacteria obtained with use of Escherichia coli (γ), which is determined by the following formula: Z=Z1/Z2.
In the formula, “Z1” represents the amount of the recombinant protein in the culture solution which remains after removal of bacterial cells by centrifugation in the case of using Escherichia coli (γ).
“Z2” represents the amount of the whole recombinant protein in the culture solution in the case of using Escherichia coli (γ).
Escherichia coli (α) and (β) were each cultured in the same manner as in the above case except that polyoxyethylene (3 mol) tridecyl ether sodium acetate as the surfactant (A) was added right after the resuspension of the Escherichia coli in the buffer solution in the process (3) of A-0, in an amount of 1% by weight on the basis of the weight of the suspension of the bacterium. The secretion efficiency was calculated according to the above-mentioned definition.

Escherichia coli(δ) [1] = experiment: Production by secretion in microbial culture system, cellulase expressing strain (Table 5); set-up: key to Turbidity: (measured turbidity of diluted culture − blank) × dilution rate; conditions: Examples 2-11, surfactant 1 wt %; for Dried cell density: at termination of culturing, obtained from turbidity; for Turbidity: culturing terminated after 48 hours
Experimental: A bglC gene of Bacillus licheniformis was amplified by the PCR method using primers 9 and 10 (Table 4). After being treated with restriction enzymes NcoI and BamHI, a PCR amplified fragment was bound to an NcoI restriction enzyme site and a BamHI restriction enzyme site of a pET-22b plasmid (product of Novagen). Then, the plasmid was transformed into a BL21 (DE3) Escherichia coli strain (product of Novagen) to form Escherichia coli […] that expresses cellulase.
Overnight cultures (1 ml) of Escherichia coli (δ) obtained in Production Example 4 and Escherichia coli (ε) obtained in Production Example 5 were respectively prepared as Comparative Example 2 and Comparative Example 4. An amount of 0.5 ml of each was inoculated in 5 ml of an LB culture solution (containing 100 mg/L of ampicillin) and was shake-cultured at 30° C. for 3 hours. In this manner, pre-culture solutions were prepared. The pre-culture solutions were each inoculated in 50 mL of a culture solution (1.2 g of yeast extract (Nihon Pharmaceutical Co., Ltd.), 0.6 g of polypeptone (Nihon Pharmaceutical Co., Ltd.), 0.47 g of dipotassium phosphate, 0.11 g of monopotassium phosphate, 0.35 g of ammonium sulfate, 0.66 g of disodium phosphate 12-hydrate, 0.02 g of sodium citrate dihydrate, 0.2 g of glycerol, 1.5 g of lactalbumin hydrolysate, 0.3 g of a defoaming agent (Shin-Etsu Chemical Co., Ltd., “KM-70”), 1 mM magnesium sulfate, trace metal solution (18.9 μg of calcium chloride, 500 μg of iron chloride (III), 9.0 μg of zinc sulfate heptahydrate, 5.1 μg of copper sulfate, 6.7 μg of manganese chloride tetrahydrate, 4.9 μg of cobalt chloride, 200 μg of ethylene-diamine-tetraacetic acid tetrasodium salt), 100 mg/L ampicillin). Culturing was initiated with use of a microbial culture system (ABLE Corporation, product name “BioJr. 8”), while the pH value and the temperature were maintained at 6.8 and 30° C. After the culturing was initiated, 0.15 mL of 1M IPTG was added. After 14 hours from the initiation of culturing, instillation of a glycerin/protein solution (50% of glycerin, 50 g/L of lactalbumin hydrolysate, a 33 g/L defoaming agent (Shin-Etsu Chemical Co., Ltd., “KM-70”), 100 mg/L ampicillin) was started. The culturing was terminated after 48 hours from the initiation and the culture solution was recovered. The whole protein in the culture solution was analyzed by SDS-PAGE. Based on the obtained amount of the protein band, the recombinant protein was quantified.
The dried cell density at the termination of the culturing was determined by the following processes (1) to (5):
The dried cell density was determined by applying the measuring results in the process (5) and the process (1) and the volume (L) of the culture solution used in the process (2) to the following formula: Dried cell density (g/L)=([measuring result in process (5)]−[measuring result in process (1)])/0.1.
Performance of this processes for several times clarified the proportional relationship between the turbidity of the culture solution and the dried cell density. Therefore, the dried cell density was obtained from the measured turbidity in each of Comparative Examples 2 to 4 and Examples 2 to 14.
The turbidity of a culture solution that is same as the culture solution used in the measurement of the dried cell density was measured using a turbidimeter (Shimadzu Corporation, UV-1700) and 1 ml of quarts cell.
For measurement, the culture solution was diluted in saline to have an appropriate absorbance. The absorbance of the same culture solution (but not containing bacteria) diluted at the same dilution as above was set as a blank. The turbidity of the culture solution was calculated by using the following formula: Turbidity of culture solution=[(measured turbidity of diluted culture solution)−(measured turbidity of blank)]×dilution rate.
The dried cell density and the turbidity of the culture solution were plotted to construct a graph in FIG. 3. […]

Escherichia coli(δ) [2] = experiment: as above; conditions: Examples 2-11; surfactant 1 wt %; supernatant of culture solution, SDS-PAGE
Escherichia coli (β) = experiment: Screening of secretion efficiency, TorA expressing strain; conditions: surfactant 1 wt %; 37° C., 1 hour; ELISA, anti-His-tag antibody
Source text: as §1, with “torA” for “pdxA”, “3” for “5”, “4” for “6”, “TorA” for “PdxA”, “(β). Localization of the expressed TorA in a periplasmic fraction was confirmed by conducting an analysis based on the method disclosed in page 121 of Vol. 353 of METHODS IN ENZYMOLOGY (2002).” for “(γ).”
as §1, with “(γ). Localization of the expressed PdxA in a cytoplasmic compartment was confirmed by conducting an analysis based on the method disclosed in page 121 of Vol. 353 of METHODS IN ENZYMOLOGY (2002). […]” for “(γ).”
(4) Then, the solution was allowed to stand at 37° C. for 1 hour. […] Here, the quantification of the recombinant protein in the resulting solution was carried out by ELISA assay with use of an anti-His-tag antibody. The sample prior to the centrifugation in the process (3) was treated with ultrasonic waves (200 W, 10 minutes) and the quantification of the recombinant protein therein was similarly carried out by ELISA assay with use of an anti-His-tag antibody. The ratio of lysed bacteria was obtained with use of Escherichia coli (γ), and the secretion efficiencies of the recombinant proteins of Escherichia coli (α) and (β) were calculated by using the following formula. […]
“Z” represents the ratio of lysed bacteria obtained with use of Escherichia coli (γ), which is determined by the following formula: Z=Z1/Z2. […]

Row | Compound | Secretion efficiency (%) Escherichia coli (α) (Escherichia coli (α)) [%] | Dried cell density (Escherichia coli(δ) [1]) [g/L] | Turbidity (Escherichia coli(δ) [1]) | Quantitative value of produced recombinant protein (Escherichia coli(δ) [2]) [g/L] | Secretion efficiency (%) Escherichia coli (β) (Escherichia coli (β)) [%]
1 | CCCCCCCCCCCC(=O)NCCN(CCO)CC(=O)O.[Na] [A-13, Sodium N-lauroyl-N′-carboxymethyl-N′-hydroxyethyl ethylenediamine] | 46.6 | 21.4 | 76.4 | 1.79 | –
2 | Palm oil fatty acid amide propyl dimethyl amino acetate betaine [A-3] | 91.3 | – | – | – | 93.6
3 | Sodiumt polyoxyethylene (3 mol) laurylether acetate [A-9] | 63.3 | 14.2 | 50.7 | 1.35 | –
4 | CCCCCCCCCCCC[N+](C)(C)CC(=O)[O-] [A-5, Lauryl dimethylamino acetate betaine] | 87.8 | 23.8 | 85 | 2.58 | –
